Source: US20170232083A1, “METHODS OF DIAGNOSIS AND TREATMENT OF CELIAC DISEASE IN CHILDREN” (priority 2014, published 2017)

Tested on: PBMC (polyclonal gluten-specific T cells) of paediatric and adult CD patients
Assay: IFN-γ ELISpot of PBMC after 3 day oral wheat challenge (SFU, % of maximal peptide response, dominance scores, EC50; Examples 5-6)
Format: cell-based, human
Conditions: for IFN-γ ELISpot response: after oral wheat challenge; for Cross-reactive T cell response: following wheat challenge; for IFN-γ ELISpot responses Day 0 prior to vs Day 6 after wheat challenge: p<0.05, Kruskal Wallis
[1] = patient A, 11-17 yrs, cut-off 10 SFU
[2] = patient E, H, 11-17 yrs, cut-off 10 SFU
[3] = patient F, 11-17 yrs, cut-off 10 SFU
[4] = patient G, 11-17 yrs, cut-off 10 SFU
[5] = patient H (HLA-DQ2.5 homozygote), 3-5yrs, cut-off 10 SFU
[6] = patient H, 11-17 yrs, cut-off 10 SFU
[7] = patient ID not given, 11-17 yrs, cut-off 10 SFU
[8] = patient ID not given, max peptide 95 SFU
[9] = patient N, 3-5yrs, cut-off 10 SFU
[10] = patient P, 11-17 yrs, cut-off 21.6 SFU
[11] = patient Q, 11-17 yrs, cut-off 10 SFU
[12] = patient U, H, 11-17 yrs, cut-off 10 SFU
[13] = patient V, 6-10 yrs, cut-off 10 SFU
[14] = patient Y, 6-10 yrs, cut-off 10 SFU
[15] = patient eleven, 6-10 yrs, cut-off 10 SFU
[16] = patient five, max peptide 48 SFU
[17] = patient four, 3-5yrs, cut-off 10 SFU
[18] = patient seven, 6-10 yrs, cut-off 10.5 SFU
[19] = patient ten, 3-5yrs, cut-off 10 SFU
[20] = patient three, 6-10 yrs, cut-off 10.5 SFU
[21] = patient twelve, 11-17 yrs, cut-off 10 SFU
[22] = patient two, 3-5yrs, cut-off 10 SFU
[23] = patient eleven, max peptide 57 SFU
[24] = patient four, max peptide 44 SFU
[25] = patient two, max peptide 60 SFU
[26] = subject I (3-5yrs/6-10yrs part)
[27] = subject J (3-5yrs/6-10yrs part)
[28] = subject K (3-5yrs/6-10yrs part)
[29] = subject V (3-5yrs/6-10yrs part)
[30] = subject W (3-5yrs/6-10yrs part)
[31] = subject Y (3-5yrs/6-10yrs part)
[32] = subject five (3-5yrs/6-10yrs part)
[33] = subject seven (3-5yrs/6-10yrs part)
[34] = subject six (3-5yrs/6-10yrs part)
[35] = subject ten (3-5yrs/6-10yrs part)
[36] = subject two (3-5yrs/6-10yrs part)

PFPEQPEQPYPQQ
IFN-γ ELISpot response [1]: 0 SFU | IFN-γ ELISpot response [2]: 14 SFU | Significant response as percentage of maximal peptide SFU (patient E, max peptide 224 SFU): (6-10% = ^) | IFN-γ ELISpot response [3]: 8 SFU | IFN-γ ELISpot response [4]: 1 SFU | IFN-γ ELISpot response [5]: 11 SFU | IFN-γ ELISpot response [6]: 1 SFU | IFN-γ ELISpot response [7]: 14 SFU | Significant response as percentage of maximal peptide SFU [8]: ′ (11-20% = ′) | Significant response as percentage of maximal peptide SFU (patient II, max peptide 15 SFU): + (>70% = +) | Significant response as percentage of maximal peptide SFU (patient M, max peptide 48 SFU): ′ (11-20% = ′) | IFN-γ ELISpot response [9]: 1 SFU | IFN-γ ELISpot response [10]: 15 SFU | IFN-γ ELISpot response [11]: 19 SFU | Significant response as percentage of maximal peptide SFU (patient Q, max peptide 97 SFU): ′ (11-20% = ′) | IFN-γ ELISpot response [12]: 2 SFU | IFN-γ ELISpot response [13]: 7 SFU | IFN-γ ELISpot response [14]: 5 SFU | IFN-γ ELISpot response [15]: 3 SFU | Significant response as percentage of maximal peptide SFU [16]: ′′ (21-40% = ′′) | IFN-γ ELISpot response [17]: 4 SFU | IFN-γ ELISpot response [18]: 3 SFU | IFN-γ ELISpot response [19]: 5 SFU | IFN-γ ELISpot response [20]: 9 SFU | IFN-γ ELISpot response [21]: 2 SFU | IFN-γ ELISpot response [22]: 6 SFU

LQPFPQPELPYSQP
IFN-γ ELISpot response [1]: 3 SFU | IFN-γ ELISpot response [2]: 104 SFU | Significant response as percentage of maximal peptide SFU (patient E, max peptide 224 SFU): ′′′ (41-70% = ′′′) | IFN-γ ELISpot response [3]: 81 SFU | Significant response as percentage of maximal peptide SFU (patient F, max peptide 178 SFU): ′′′ (41-70% = ′′′) | IFN-γ ELISpot response [4]: 5 SFU | IFN-γ ELISpot response [5]: 36 SFU | IFN-γ ELISpot response [6]: 15 SFU | Significant response as percentage of maximal peptide SFU (patient H, max peptide 17 SFU): + (>70% = +) | IFN-γ ELISpot response [7]: 53 SFU | Significant response as percentage of maximal peptide SFU [8]: ′′′ (41-70% = ′′′) | Significant response as percentage of maximal peptide SFU (patient II, max peptide 15 SFU): + (>70% = +) | Significant response as percentage of maximal peptide SFU (patient J, max peptide 196 SFU): ′′ (21-40% = ′′) | Significant response as percentage of maximal peptide SFU (patient M, max peptide 48 SFU): + (>70% = +) | IFN-γ ELISpot response [9]: 3 SFU | IFN-γ ELISpot response [10]: 37 SFU | Significant response as percentage of maximal peptide SFU (patient P, max peptide 64 SFU): ′′′ (41-70% = ′′′) | IFN-γ ELISpot response [11]: 29 SFU | Significant response as percentage of maximal peptide SFU (patient Q, max peptide 97 SFU): ′′ (21-40% = ′′) | IFN-γ ELISpot response [12]: 25 SFU | Significant response as percentage of maximal peptide SFU (patient U, max peptide 81 SFU): ′′ (21-40% = ′′) | IFN-γ ELISpot response [13]: 19 SFU | Significant response as percentage of maximal peptide SFU (patient V, max peptide 35 SFU): ′′′ (41-70% = ′′′) | IFN-γ ELISpot response [14]: 12 SFU | Significant response as percentage of maximal peptide SFU (patient Y, max peptide 16 SFU): + (>70% = +) | IFN-γ ELISpot response [15]: 39 SFU | Significant response as percentage of maximal peptide SFU [23]: ′′′ (41-70% = ′′′) | Significant response as percentage of maximal peptide SFU [16]: ′′′ (41-70% = ′′′) | IFN-γ ELISpot response [17]: 22 SFU | Significant response as percentage of maximal peptide SFU [24]: ′′′ (41-70% = ′′′) | IFN-γ ELISpot response [18]: 6 SFU | IFN-γ ELISpot response [19]: 11 SFU | Significant response as percentage of maximal peptide SFU (patient ten, max peptide 14.5 SFU): + (>70% = +) | IFN-γ ELISpot response [20]: 71 SFU | IFN-γ ELISpot response [21]: 6 SFU | IFN-γ ELISpot response [22]: 13 SFU | Significant response as percentage of maximal peptide SFU [25]: ′ (11-20% = ′)

QPFPQPEQPIPQQ
Cross-reactive T cell response (subject A, 11-17yrs): 3 SFU | Significant response as a percentage of maximal peptide SFU (subject D, 11-17yrs): + (>70% = +) | Cross-reactive T cell response (subject D, 11-17yrs): 29 SFU | Significant response as a percentage of maximal peptide SFU (subject E, 11-17yrs): ′′ (21-40% = ′′) | Cross-reactive T cell response (subject E, 11-17yrs): 87 SFU | Significant response as a percentage of maximal peptide SFU (subject F, 11-17yrs): ′′ (21-40% = ′′) | Cross-reactive T cell response (subject F, 11-17yrs): 62 SFU | Cross-reactive T cell response (subject G, 11-17yrs): 4 SFU | Cross-reactive T cell response (subject H): 1 SFU | Cross-reactive T cell response [26]: 3 SFU | Significant response as a percentage of maximal peptide SFU (subject J): ′′′ (41-70% = ′′′) | Cross-reactive T cell response [27]: 132 SFU | Significant response as a percentage of maximal peptide SFU (subject K): ′ (11-20% = ′) | Cross-reactive T cell response [28]: 11 SFU | Significant response as a percentage of maximal peptide SFU (subject P, 11-17yrs): + (>70% = +) | Cross-reactive T cell response (subject P, 11-17yrs): 48 SFU | Significant response as a percentage of maximal peptide SFU (subject Q, 11-17yrs): ′′′ (41-70% = ′′′) | Cross-reactive T cell response (subject Q, 11-17yrs): 64 SFU | Significant response as a percentage of maximal peptide SFU (subject T, 11-17yrs): + (>70% = +) | Cross-reactive T cell response (subject T, 11-17yrs): 87 SFU | Significant response as a percentage of maximal peptide SFU (subject U, 11-17yrs): ′′′ (41-70% = ′′′) | Cross-reactive T cell response (subject U, 11-17yrs): 41 SFU | Significant response as a percentage of maximal peptide SFU (subject V): ′′′ (41-70% = ′′′) | Cross-reactive T cell response [29]: 17 SFU | Cross-reactive T cell response [30]: 5 SFU | Cross-reactive T cell response [31]: 7 SFU | Significant response as a percentage of maximal peptide SFU (subject five): + (>70% = +) | Cross-reactive T cell response [32]: 44 SFU | Cross-reactive T cell response (subject nine, 11-17yrs): 1 SFU | Cross-reactive T cell response [33]: 7 SFU | Significant response as a percentage of maximal peptide SFU (subject six): + (>70% = +) | Cross-reactive T cell response [34]: 12 SFU | Cross-reactive T cell response [35]: 4 SFU | Significant response as a percentage of maximal peptide SFU (subject two): ′′ (21-40% = ′′) | Cross-reactive T cell response [36]: 24 SFU

QPFPQPEQQLPLQ
Cross-reactive T cell response (subject A, 11-17yrs): 1 SFU | Cross-reactive T cell response (subject D, 11-17yrs): 5 SFU | Significant response as a percentage of maximal peptide SFU (subject E, 11-17yrs): ′ (11-20% = ′) | Cross-reactive T cell response (subject E, 11-17yrs): 30 SFU | Cross-reactive T cell response (subject F, 11-17yrs): 5 SFU | Cross-reactive T cell response (subject G, 11-17yrs): 1 SFU | Cross-reactive T cell response (subject H): 1 SFU | Cross-reactive T cell response [26]: 3 SFU | Significant response as a percentage of maximal peptide SFU (subject J): ′′′ (41-70% = ′′′) | Cross-reactive T cell response [27]: 79 SFU | Cross-reactive T cell response [28]: 9 SFU | Cross-reactive T cell response (subject P, 11-17yrs): 11 SFU | Significant response as a percentage of maximal peptide SFU (subject Q, 11-17yrs): ′ (11-20% = ′) | Cross-reactive T cell response (subject Q, 11-17yrs): 11 SFU | Significant response as a percentage of maximal peptide SFU (subject T, 11-17yrs): ′′ (21-40% = ′′) | Cross-reactive T cell response (subject T, 11-17yrs): 27 SFU | Cross-reactive T cell response (subject U, 11-17yrs): 4 SFU | Cross-reactive T cell response [29]: 3 SFU | Cross-reactive T cell response [30]: 3 SFU | Cross-reactive T cell response [31]: 5 SFU | Significant response as a percentage of maximal peptide SFU (subject five): ′′ (21-40% = ′′) | Cross-reactive T cell response [32]: 11 SFU | Cross-reactive T cell response (subject nine, 11-17yrs): 3 SFU | Cross-reactive T cell response [33]: 11 SFU | Significant response as a percentage of maximal peptide SFU (subject six): + (>70% = +) | Cross-reactive T cell response [34]: 11 SFU | Cross-reactive T cell response [35]: 6 SFU | Cross-reactive T cell response [36]: 2 SFU

FLQPEQPFPEQPEQPYPEQPEQPFPQ
IFN-γ ELISpot response [4]: 1 SFU | IFN-γ ELISpot response [6]: 6 SFU | IFN-γ ELISpot response [7]: 23 SFU | Significant response as percentage of maximal peptide SFU [8]: ′′ (21-40% = ′′) | Significant response as percentage of maximal peptide SFU (patient J, max peptide 196 SFU): ′ (11-20% = ′) | Significant response as percentage of maximal peptide SFU (patient K, max peptide 53 SFU): ′′ (21-40% = ′′) | IFN-γ ELISpot response [10]: 11 SFU | IFN-γ ELISpot response [11]: 18 SFU | Significant response as percentage of maximal peptide SFU (patient Q, max peptide 97 SFU): ′ (11-20% = ′) | IFN-γ ELISpot response [12]: 26 SFU | Significant response as percentage of maximal peptide SFU (patient U, max peptide 81 SFU): ′′ (21-40% = ′′) | IFN-γ ELISpot response [13]: 12 SFU | Significant response as percentage of maximal peptide SFU (patient V, max peptide 35 SFU): ′′ (21-40% = ′′) | IFN-γ ELISpot response [14]: 6 SFU | IFN-γ ELISpot response [15]: 15 SFU | Significant response as percentage of maximal peptide SFU [23]: ′′ (21-40% = ′′) | IFN-γ ELISpot response [17]: 10 SFU | Significant response as percentage of maximal peptide SFU [24]: ′′ (21-40% = ′′) | IFN-γ ELISpot response [18]: 20 SFU | Significant response as percentage of maximal peptide SFU (patient seven, max peptide 27 SFU): + (>70% = +) | IFN-γ ELISpot response [19]: 3 SFU | IFN-γ ELISpot response [20]: 22 SFU | IFN-γ ELISpot response [22]: 12 SFU | Significant response as percentage of maximal peptide SFU [25]: ′ (11-20% = ′)

tetanus toxoid: positive control antigen (CSL, Australia) [reference compound]
IFN-γ ELISpot responses Day 0 prior to vs Day 6 after wheat challenge: no difference | IFN-γ ELISpot responses Day 0 prior to vs Day 6 after wheat challenge (listed as Tetanus toxoid): did not differ
